Assay results as given in patent US6239130A, “Phosphodiesterase 4-inhibiting diazepinoindolones” (Warner-Lambert Company, priority 1997, dated 2001).
Like-named read-outs stand apart in the source and are kept apart here.

Tested on: PDE4 enzyme of human origin
Assay: PDE4-inhibiting activity on an enzyme preparation obtained from the U937 cell line
Type: biochemical
Protocol: In the case of the PDE4 enzymes, this value is compared with that of rolipram, a specific PDE4 inhibitor. […] Measurement of the enzyme activity of the different types of PDE, and especially of the PDE4 enzymes, is then carried out according to a method adapted from W. J. Thompson, ibidem.

| SMILES | IC50 [nM] | IC50 (listed as 7B) [nM] |
| --- | --- | --- |
| Cc1cc2c3c(c1)C(c1ccccc1)=NC(n1c(C)nc4cc(C(=O)O)ccc4c1=O)C(=O)N3CC2 (racemic) [Example 7, 2-methyl-3-(9-methyl-4-oxo-1-phenyl-3,4,6,7-tetrahydro-[1,4]diazepino[6,7,1-hi]indol-3-yl)-4-oxo-3,4-dihydroquinazoline-7-carboxylic acid] | 52 | 57 |
| Cc1cc2c3c(c1)C(c1ccccc1)=N[C@H](n1c(C)nc4cc(C(=O)O)ccc4c1=O)C(=O)N3CC2 [7D(R), (3R)-2-methyl-3-(9-methyl-4-oxo-1-phenyl-3,4,6,7-tetrahydro[1,4]diazepino[6,7,1-hi]indol-3-yl)-4-oxo-3,4-dihydroquinazoline-7-carboxylic acid] | 982 |  |
| Cc1cc2c3c(c1)C(c1ccccc1)=N[C@@H](n1c(C)nc4cc(C(=O)O)ccc4c1=O)C(=O)N3CC2 [7E(S), (3S)-2-methyl-3-(9-methyl-4-oxo-1-phenyl-3,4,6,7-tetrahydro[1,4]diazepino[6,7,1-hi]indol-3-yl)-4-oxo-3,4-dihydroquinazoline-7-carboxylic acid] | 35 |  |
| Cc1nc2ccccc2c(=O)n1[C@@H]1N=C(c2ccccc2)c2cccc3c2N(CC3)C1=O [Example 1, (3S)-3-(2-methyl-4-oxo-4H-quinazolin-3-yl)-1-phenyl-6,7-dihydro-3H[1,4]diazepino[6,7,1-hi]indol-4-one] | 448 |  |
| Cc1cc2c3c(c1)C(c1ccccc1)=NC(n1c(C)nc4ccccc4c1=O)C(=O)N3CC2 (stereo not shown) [Example 2, 9-methyl-3-(2-methyl-4-oxo-4H-quinazolin-3-yl)-1-phenyl-6,7-dihydro-3H-[1,4]diazepino [6,7,1-hi] indol-4-one] | 146 |  |
| COc1cc2c3c(c1)C(c1ccccc1)=NC(n1c(C)nc4ccccc4c1=O)C(=O)N3CC2 (stereo not shown) [Example 2A, 9-methoxy-3-(2-methyl-4-oxo-4H-quinazolin-3-yl)-1-phenyl-6,7-dihydro-3H-[1,4]diazepino [6,7,1-hi] indol-4-one] | 183 |  |
| COC(=O)c1ccc2c(=O)n(C3N=C(c4ccccc4)c4cc(OC)cc5c4N(CC5)C3=O)c(C)nc2c1 (stereo not shown) [Example 2B, Methyl 2-methyl-3-(9-methoxy-4-oxo-1-phenyl-3,4,6,7-tetrahydro[1,4]diazepino[6,7,1-hi]indol-3-yl)-4-oxo-3,4-dihydroquinazoline-7-carboxylate] | 67 |  |
| COc1cc2c3c(c1)C(c1ccccc1)=NC(n1c(C)nc4cc(C(=O)O)ccc4c1=O)C(=O)N3CC2 (stereo not shown) [Example 2C, 2-methyl-3-(9-methoxy-4-oxo-1-phenyl-3,4,6,7-tetrahydro[1,4]diazepino[6,7,1-hi]indol-3-yl)-4-oxo-3,4-dihydroquinazoline-7-carboxylic acid] | 108 |  |
| Cc1cc2c3c(c1)C(c1ccccc1)=N[C@@H](n1c(C)nc4cccc(C)c4c1=O)C(=O)N3CC2 [Example 3, (3S)-9-methyl-3-(2,5-dimethyl-4-oxo-4H-quinazolin-3-yl)-1-ph enyl-6,7-dihydro-3H-[1,4]-diazepino[6,7,1-hi]indol-4-one] | 141 |  |
| Cc1cc2c3c(c1)C(c1ccccc1)=N[C@@H](n1c(C)nc4ccc(C)cc4c1=O)C(=O)N3CC2 [Example 4, (3S)-9-methyl-3-(2,6-dimethyl-4-oxo-4H-quinazolin-3-yl)-1-phenyl-6,7-dihydro-3H-[1,4]diazepino[6,7,1-hi]indol-4-one] | 553 |  |
| Cc1cc2c3c(c1)C(c1ccccc1)=N[C@@H](n1c(C)nc4c(C)cccc4c1=O)C(=O)N3CC2 [Example 5, (3S)-9-methyl-3-(2,8-dimethyl-4-oxo-4H-quinazolin-3-yl)-1-ph enyl-6,7-dihydro-3H-[1,4]diazepino[6,7,1-hi]indol-4-one] | 832 |  |
| COc1cccc2nc(C)n(C3N=C(c4ccccc4)c4cc(C)cc5c4N(CC5)C3=O)c(=O)c12 (stereo not shown) [Example 6, 3-(5-methoxy-2-methyl-4-oxo-4H-quinazolin-3-yl)-9-methyl-1-phenyl-6,7-dihydro-3H-[1,4]diazepino[6,7,1-hi]indol-4-one] | 3020 |  |
